How the values were obtained:
[1] = tested on: Caco-2/TC7 tumor cells; test: MTT cell viability, tumor Caco-2/TC7 cells (5 days after seeding); assay type: cell-based, human; conditions: for IC50: Caco-2/TC7, 5 days after seeding, 72 h incubation, MTT; for Tumor Cells Selectivity over Normal Cells: ratio of IC50 normal / tumor Caco-2/TC7 cells
Procedure: (§1) This study was conducted in the human enterocyte-like cell line Caco-2/TC7 [44]. This cell line undergoes a process of spontaneous differentiation in culture that leads to the formation of a monolayer of cells, expressing the morphological and functional characteristics of the mature enterocytes. This differentiation process is growth-dependent, where the cells undergo differentiation from “undifferentiated proliferative crypt-type cells” in the exponential phase of growth, to “differentiated enterocyte-type cells” in the stationary phase. The cell culture of Caco-2/TC7 cells (passages 30–50) was performed according to a previously reported method.
(§2) Cell survival was measured using the MTT test. The assay depends on the cellular reduction of 3-(4,5-dimethylthiazol-2-yl)-2,5-diphenyltetrazolium bromide (MTT, Sigma-Aldrich, Madrid, Spain) by the mitochondrial dehydrogenase of viable cells to a blue formazan product that can be measured spectrophotometrically, as previously described.
(§3) The in vitro cytotoxic effect was evaluated on human colon cancer cell line Caco-2/TC7. This particular cell line presents a huge advantage for toxicity studies because of its spontaneous enterocytic-like differentiation when confluence is reached. Therefore, Caco-2 cells become polarized cells expressing apical and basolateral surfaces with well-established tight junctions. Thus, cells present noncarcinogenic behavior in the confluence and the cytotoxic effect of our complexes can be performed on differentiated cells to evaluate the selectivity toward tumor cells. For the antiproliferative studies, MTT assay was performed after 72 h of exposure to different concentrations of the complexes at two different stages of confluence, five days to evaluate the effect on tumor cells (Figure S7) and 15 days for normal cells (Figure S8).

[2] = tested on: Caco-2/TC7 normal cells; test: MTT cell viability, normal (differentiated) Caco-2/TC7 cells (15 days after seeding); assay type: cell-based, human; conditions: Caco-2/TC7, 15 days after seeding, 72 h incubation
Procedure: as §1, §2, §3

[3] = tested on: Undifferentiated Caco-2/TC7 cell; test: Apoptosis/necrosis, Annexin V-FITC / 7-AAD flow cytometry; assay type: cell-based, human; conditions: 20 μM, 24 h
Procedure: For the studies of apoptosis, using the detection of phosphatidylserine in the outer layer of the plasma membrane, an Annexin V-FITC Apoptosis Detection kit (Immunostep, Salamanca, Spain) was used. After incubation with the complexes, the cells were collected and transferred to flow-cytometry tubes. A negative control was prepared with untreated cells, which was used to define the basal level of apoptotic, necrotic, or dead cells. The staining with Annexin V-FITC and 7-Aminoactinomycin D (7-AAD) was performed according to the manufacturer’s recommendations. The cells were washed twice with temperate phosphate-buffered saline (PBS) and resuspended in 200 μL of 1x Annexin-binding buffer. After that, 2.5 μL Annexin V-FITC and 2.5 μL […] were added to each 50 μL of cell suspension. After incubation for 15 min at RT in the dark, 400 μL of 1× Annexin-binding buffer were added and analyzed by flow cytometry within 1 h. The signal intensity was measured using a Gallios Flow Cytometer (Beckman Coulter, Brea, CA, USA) and analyzed using the Kaluza Analysis Software (Beckman Coulter).
After obtaining great results from the cell viability studies, it was determined that only non-cytotoxic complexes on normal cells are good candidates as anticancer drugs, so complexes C1, C5, and C6 were selected for the following studies. Thus, we proceeded to elucidate the action mechanism of these three complexes to induce cell death. The most convenient cell death for anticancer drugs is apoptosis, since in this way no inflammation processes occur and it is carefully controlled. The apoptotic way is normally characterized by several morphological changes in the cell membrane, by which phosphatidylserine (PS) is exposed, moving from the inner part to the outer surface of the membrane. Thanks to this translocation, Annexin V (FITC-conjugated) can interact selectively with the PS, differentiating healthy cells from apoptotic cells. Besides, cells undergoing late apoptosis stages and necrotic cells present deep damage in the membrane that makes 7-aminoactinomycin D (7-AAD) access the nucleus. Therefore, by using flow cytometry, all different cell populations can be distinguished.
Figure 4 Undifferentiated Caco-2/TC7 cell apoptotic-state (a) and necrotic-state (b) analysis after 24 h of incubation with C1, C5, and C6 (20 µM).

[4] = tested on: Caco-2/TC7 cells; test: Oxidative stress damage, protein carbonyl levels (DNPH); assay type: cell-based, human; conditions: 20 μM, 24 h
Procedure: Cell homogenates needed for this assay were prepared according to a previously described method. Protein oxidation was analyzed by carbonyl-level measurement as previously described. Cell homogenates were incubated with the classical carbonyl reagent 2,4-dinitrophenylhydrazine (DNPH), and protein carbonylation was measured spectrophotometrically at 375 nm. The results were calculated in nmol carbonyl groups mg^−1 protein.
According to the literature, gold complexes act as anticancer agents by the disruption of redox homeostasis. As a result, the concentration of ROS species rises and consequently, main biomolecules, such as lipids, proteins, or even DNA, can be oxidized. However, tumor cells present an overproduction of ROS species due to their high metabolism. The most common anticancer strategy is promoting a higher oxidative damage in biomolecules to trigger the apoptosis process. […] In this study, we evaluated the oxidation levels of the carbonyl groups present in proteins by the established method of 2,4-dinitrophenylhydrazine (DNPH).
Figure 6 Carbonyl levels (nmol mg^−1 protein) in Caco-2/TC7 cells treated with vehicle DMSO (control) or gold(III) complexes (24 h, 20 μM). Values are expressed as mean values ± SEM (n ≥ 6 experiments). ** p < 0.01; *** p < 0.001 vs. control.

[5] = tested on: Candida albicans (Ca); test: Antifungal MIC assay (CO-ADD); assay type: cell-based; conditions: 36 h, 35 °C, inhibition ≥ 80%
Procedure: (§4) The antimicrobial assays were performed according to the protocols of the Community for Open Antimicrobial Drug Discovery (CO-ADD). […] All the sample preparation was done using liquid-handling robots.
(§5) The antifungal activity of all synthesized complexes was evaluated in two different fungi, Candida albicans (Ca) and Cryptococcus neoformans (Cn). Fungi strains were cultured for 3 days on yeast extract–peptone–dextrose (YPD) agar at 30 °C. A yeast suspension of 1 × 10^6 to 5 × 10^6 CFU/mL (as determined by OD530) was prepared from five colonies. The suspension was subsequently diluted and added to each well of the complex-containing plates, giving a final cell density of fungus suspension of 2.5 × 10^3 CFU/mL and a total volume of 50 μL. All plates were covered and incubated at 35 °C for 36 h without shaking. […] The absorbance was measured using a Biotek Multiflo Synergy HTX plate reader (Winooski, VT, USA). In both cases, the percentage of growth inhibition was calculated for each well, using the negative control (media only) and positive control (fungi without inhibitors) on the same plate. […] Due to a higher variance in growth and inhibition, a lower threshold was applied to the data for C. neoformans.

[6] = tested on: Cryptococcus neoformans (Cn); test: Antifungal MIC assay (CO-ADD); assay type: cell-based; conditions: 36 h, 35 °C, inhibition ≥ 70%
Procedure: as §4, §5

| Compound | IC50 [1] [µM] | Tumor Cells Selectivity over Normal Cells [1] | IC50 [2] [µM] | necrosis [3] | percentage of cells in apoptosis vs control [3] | oxidized protein (carbonyl) levels vs control [4] | MIC Ca [5] [µg/mL] | MIC Cn [6] [µg/mL] |
| --- | --- | --- | --- | --- | --- | --- | --- | --- |
| Cc1ccc(-c2ccccn2)[c]([Au+][S]C(=S)N(C)C)c1.F[P-](F)(F)(F)(F)F [Complex C1, [Au(tpy)(dmdtc)] PF6] | 5.11 ± 0.12 | 4.5-fold | 23.03 ± 0.06 | did not die because of necrosis | no significant differences | did not promote oxidative stress damage | >32 | 32 |
| CN(C)C(=S)[S][Au+][c]1ccccc1-c1ccccn1.F[P-](F)(F)(F)(F)F [Complex C2, [Au(ppy)(dmdtc)]PF6] | 1.79 ± 0.12 | 8.8-fold | 15.69 ± 0.06 |  |  |  | 32 | 32 |
| CCN(CC)C(=S)[S][Au+][c]1cc(C)ccc1-c1ccccn1.F[P-](F)(F)(F)(F)F [Complex C3, [Au(tpy)(dedtc)]PF6] | 1.85 ± 0.36 | 7.0-fold | 12.95 ± 0.11 |  |  |  | >32 | 2 |
| Cc1ccc2[c](c1)[Au-]1([S]C(N(Cc3ccccc3)Cc3ccccc3)=[S+]1)[n+]1ccccc1-2.F[P-](F)(F)(F)(F)F (stereo not shown) [Complex C5, [Au(tpy)(dbdtc)]PF6] | 2.07 ± 0.11 |  | > 100 | did not die because of necrosis | no significant differences | did not promote oxidative stress damage | 32 | 32 |
| F[P-](F)(F)(F)(F)F.S=C([S][Au+][c]1ccccc1-c1ccccn1)N(Cc1ccccc1)Cc1ccccc1 [Complex C6, [Au(ppy)(dbdtc)]PF6] | 4.02 ± 0.3 | 6.2-fold | 24.7 ± 0.36 | did not die because of necrosis | no significant differences | did not promote oxidative stress damage | 4 |  |
| [Au(ppy)(dedtc)]PF6 [Complex C4] | 2.47 ± 0.25 | 6.8-fold | 16.79 ± 0.13 |  |  |  | 32 | 32 |

Reference: PMC8698672, “Selective Anticancer and Antimicrobial Metallodrugs Based on Gold(III) Dithiocarbamate Complexes” (Biomedicines, 2021)
